# Reference: ChEMBL document CHEMBL6182931, “Chemical Evolution of Aplithianine Class of Serine/Threonine Kinase Inhibitors” (J Med Chem, 2025)
# The source made the active and inactive calls. The rule behind the calls is not given here.
# Tests used:
# [1] = target: Dual specificity protein kinase CLK1 (Homo sapiens) (UniProt P49759); assay: Inhibition of human CLK1 at 50 nM in presence of ATP by radiometric Hotspot kinase assay relative to control
# [2] = target: Dual specificity protein kinase CLK2 (Homo sapiens) (UniProt P49760); assay: Inhibition of human CLK2 at 50 nM in presence of ATP by radiometric Hotspot kinase assay relative to control
# Chain of Dual specificity protein kinase CLK2 (Homo sapiens) (P49760 whole entry, looked up): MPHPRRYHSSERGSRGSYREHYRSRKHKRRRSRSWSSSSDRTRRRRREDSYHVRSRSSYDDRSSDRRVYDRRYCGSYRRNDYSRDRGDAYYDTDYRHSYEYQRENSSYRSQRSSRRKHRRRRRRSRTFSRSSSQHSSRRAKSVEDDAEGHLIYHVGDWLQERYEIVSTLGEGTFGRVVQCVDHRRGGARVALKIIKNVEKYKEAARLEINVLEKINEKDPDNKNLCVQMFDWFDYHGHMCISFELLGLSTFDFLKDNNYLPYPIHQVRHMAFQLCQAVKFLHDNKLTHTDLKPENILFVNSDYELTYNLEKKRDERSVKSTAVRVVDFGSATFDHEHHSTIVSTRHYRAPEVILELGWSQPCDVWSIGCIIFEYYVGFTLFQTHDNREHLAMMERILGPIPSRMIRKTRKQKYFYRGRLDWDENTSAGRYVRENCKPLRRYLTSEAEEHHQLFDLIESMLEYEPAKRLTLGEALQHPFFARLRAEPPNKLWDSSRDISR
# [3] = target: cAMP-dependent protein kinase catalytic subunit beta (Homo sapiens) (UniProt P22694); assay: Inhibition of human PKAbeta at 50 nM in presence of ATP by radiometric Hotspot kinase assay
# Albumin = Albumin (Homo sapiens, UniProt P02768); assay: Binding affinity to human serum albumin assessed as protein binding at 10 uM by equilibrium dialysis technique relative to control; format: ADME; conditions: isolated protein
# Chain of Albumin (P02768 whole entry): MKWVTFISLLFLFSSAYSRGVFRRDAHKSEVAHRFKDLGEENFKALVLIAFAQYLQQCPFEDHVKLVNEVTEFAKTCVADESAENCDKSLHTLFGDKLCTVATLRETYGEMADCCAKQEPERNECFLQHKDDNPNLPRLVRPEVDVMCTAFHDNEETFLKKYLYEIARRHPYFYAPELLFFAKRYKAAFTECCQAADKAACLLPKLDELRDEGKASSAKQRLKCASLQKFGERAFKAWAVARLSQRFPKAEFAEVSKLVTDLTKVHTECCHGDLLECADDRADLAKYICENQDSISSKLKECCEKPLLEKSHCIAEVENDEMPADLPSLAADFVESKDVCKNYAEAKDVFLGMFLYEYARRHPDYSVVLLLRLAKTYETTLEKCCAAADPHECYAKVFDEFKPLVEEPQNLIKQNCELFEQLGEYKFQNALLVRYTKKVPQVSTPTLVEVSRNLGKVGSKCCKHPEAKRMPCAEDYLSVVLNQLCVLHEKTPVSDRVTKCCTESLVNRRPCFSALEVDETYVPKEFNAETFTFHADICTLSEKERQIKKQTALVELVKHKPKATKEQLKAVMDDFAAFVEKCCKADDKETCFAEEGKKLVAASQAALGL
# OVCAR-4 = assay: Antiproliferative activity against human OVCAR-4 cells assessed as growth inhibition; format: functional, cell-based
# SR = assay: Antiproliferative activity against human SR cells assessed as growth inhibition; format: functional
# [4] = Inhibition of DNAJB1-PKAcalpha (unknown origin) using biotinylated-peptide substrate CREB incubated for 45 mins in presence of ATP and cAMP by ELISA; parameters: species or system Homo sapiens
# LOX IMVI = assay: Antiproliferative activity against human LOX IMVI cells assessed as growth inhibition; format: functional
# NCI/ADR-RES = assay: Antiproliferative activity against human NCI/ADR-RES cells assessed as growth inhibition; format: functional, cell-based
# MOLT-4 = assay: Antiproliferative activity against human MOLT-4 cells assessed as growth inhibition; format: functional
# [5] = target: cAMP-dependent protein kinase catalytic subunit alpha (Homo sapiens) (UniProt P17612); conditions: dose 50.0 nM
# Description: Inhibition of human PKAalpha at 50 nM in presence of ATP by radiometric Hotspot kinase assay relative to control
# [6] = target: T1, cGMP-dependent protein kinase 1 (Homo sapiens) (UniProt Q13976); conditions: dose 50.0 nM
# T1 sequence (whole entry): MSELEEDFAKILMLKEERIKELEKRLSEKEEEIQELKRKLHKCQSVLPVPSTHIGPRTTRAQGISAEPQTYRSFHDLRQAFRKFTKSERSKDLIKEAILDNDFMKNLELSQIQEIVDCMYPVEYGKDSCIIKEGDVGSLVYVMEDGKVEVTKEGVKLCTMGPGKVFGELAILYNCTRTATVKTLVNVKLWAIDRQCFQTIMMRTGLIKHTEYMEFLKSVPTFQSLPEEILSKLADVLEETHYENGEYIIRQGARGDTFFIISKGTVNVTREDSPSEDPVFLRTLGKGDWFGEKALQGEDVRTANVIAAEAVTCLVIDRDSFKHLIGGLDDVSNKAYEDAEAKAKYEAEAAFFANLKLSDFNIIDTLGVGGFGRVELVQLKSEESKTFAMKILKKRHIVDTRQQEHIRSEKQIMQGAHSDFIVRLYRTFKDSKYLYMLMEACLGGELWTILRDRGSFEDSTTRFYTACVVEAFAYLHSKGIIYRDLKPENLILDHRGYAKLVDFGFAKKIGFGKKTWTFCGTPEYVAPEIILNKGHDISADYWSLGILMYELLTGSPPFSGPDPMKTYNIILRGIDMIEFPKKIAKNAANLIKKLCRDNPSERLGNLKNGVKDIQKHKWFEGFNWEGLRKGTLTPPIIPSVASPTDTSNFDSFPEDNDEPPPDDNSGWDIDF
# Description: Inhibition of human PKG1alpha at 50 nM in presence of ATP by radiometric Hotspot kinase assay
# MDA-MB-468 = assay: Antiproliferative activity against human MDA-MB-468 cells assessed as growth inhibition; format: functional, cell-based
# [7] = Inhibition of DNAJB1-PKAcalpha (unknown origin) overexpressed in mouse NIH/3T3 cells assessed as inhibition of CREB phosphorylation at Ser133 residue preincubated for 30 mins followed by forskolin addition and measured after 30 mins by fluorescence based multilabel reader analysis; format: cell-based; conditions: NIH3T3
# [8] = target: Dual specificity protein kinase CLK3 (Homo sapiens) (UniProt P49761); assay: Inhibition of human CLK3 at 50 nM in presence of ATP by radiometric Hotspot kinase assay relative to control
# Chain of Dual specificity protein kinase CLK3 (Homo sapiens) (P49761 whole entry, looked up): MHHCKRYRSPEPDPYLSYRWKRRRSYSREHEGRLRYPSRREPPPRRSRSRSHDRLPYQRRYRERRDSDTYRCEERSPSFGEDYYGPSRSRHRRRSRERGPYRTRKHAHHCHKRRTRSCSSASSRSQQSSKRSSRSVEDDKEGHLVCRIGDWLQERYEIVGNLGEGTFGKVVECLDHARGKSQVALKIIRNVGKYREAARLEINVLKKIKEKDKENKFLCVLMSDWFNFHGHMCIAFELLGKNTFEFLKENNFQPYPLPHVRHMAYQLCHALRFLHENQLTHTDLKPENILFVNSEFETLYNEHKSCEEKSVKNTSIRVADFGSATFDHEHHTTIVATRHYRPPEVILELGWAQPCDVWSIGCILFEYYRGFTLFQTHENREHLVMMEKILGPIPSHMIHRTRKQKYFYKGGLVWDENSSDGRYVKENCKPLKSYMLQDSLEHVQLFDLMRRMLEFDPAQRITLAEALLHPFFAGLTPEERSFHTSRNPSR
# [9] = target: T2, Dual specificity tyrosine-phosphorylation-regulated kinase 2 (Homo sapiens) (UniProt Q92630); assay: Inhibition of human DYRK2 at 50 nM in presence of ATP by radiometric Hotspot kinase assay relative to control
# T2 sequence (whole entry): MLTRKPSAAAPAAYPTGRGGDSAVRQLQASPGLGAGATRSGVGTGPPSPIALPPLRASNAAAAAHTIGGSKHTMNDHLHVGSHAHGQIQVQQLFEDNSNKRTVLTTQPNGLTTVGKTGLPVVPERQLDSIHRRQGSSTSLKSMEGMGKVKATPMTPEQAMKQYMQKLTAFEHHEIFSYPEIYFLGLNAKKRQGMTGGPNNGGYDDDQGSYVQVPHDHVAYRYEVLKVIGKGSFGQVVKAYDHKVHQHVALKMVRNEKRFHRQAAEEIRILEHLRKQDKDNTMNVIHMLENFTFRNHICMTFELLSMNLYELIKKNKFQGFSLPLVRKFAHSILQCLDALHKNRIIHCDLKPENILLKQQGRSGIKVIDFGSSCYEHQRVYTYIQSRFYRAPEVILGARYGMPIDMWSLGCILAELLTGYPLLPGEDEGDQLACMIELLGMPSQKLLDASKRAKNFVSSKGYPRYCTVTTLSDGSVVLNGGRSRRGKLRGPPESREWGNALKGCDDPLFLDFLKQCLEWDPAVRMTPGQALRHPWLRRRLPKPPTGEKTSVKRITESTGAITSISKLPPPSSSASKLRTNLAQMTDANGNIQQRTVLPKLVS
# [10] = target: T3, Dual specificity tyrosine-phosphorylation-regulated kinase 3 (Homo sapiens) (UniProt O43781); assay: Inhibition of human DYRK3 at 50 nM in presence of ATP by radiometric Hotspot kinase assay relative to control
# T3 sequence (whole entry): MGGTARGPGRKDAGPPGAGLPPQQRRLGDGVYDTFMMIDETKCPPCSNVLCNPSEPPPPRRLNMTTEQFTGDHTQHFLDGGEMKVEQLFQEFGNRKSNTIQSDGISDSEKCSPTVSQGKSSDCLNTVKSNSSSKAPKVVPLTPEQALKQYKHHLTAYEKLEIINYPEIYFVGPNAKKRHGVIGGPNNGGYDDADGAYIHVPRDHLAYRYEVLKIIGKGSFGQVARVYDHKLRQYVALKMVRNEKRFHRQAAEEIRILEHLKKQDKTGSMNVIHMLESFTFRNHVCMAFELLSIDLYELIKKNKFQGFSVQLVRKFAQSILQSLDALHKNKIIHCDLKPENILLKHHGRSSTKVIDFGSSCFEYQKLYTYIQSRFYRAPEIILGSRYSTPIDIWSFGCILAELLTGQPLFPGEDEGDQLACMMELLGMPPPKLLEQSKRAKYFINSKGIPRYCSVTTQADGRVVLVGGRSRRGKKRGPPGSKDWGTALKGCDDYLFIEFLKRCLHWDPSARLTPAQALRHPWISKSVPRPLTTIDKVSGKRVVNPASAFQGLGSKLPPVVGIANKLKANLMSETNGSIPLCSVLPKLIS
# [11] = target: Dual specificity protein kinase CLK4 (Homo sapiens) (UniProt Q9HAZ1); assay: Inhibition of human CLK4 at 50 nM in presence of ATP by radiometric Hotspot kinase assay relative to control
# Chain of Dual specificity protein kinase CLK4 (Homo sapiens) (Q9HAZ1 whole entry, looked up): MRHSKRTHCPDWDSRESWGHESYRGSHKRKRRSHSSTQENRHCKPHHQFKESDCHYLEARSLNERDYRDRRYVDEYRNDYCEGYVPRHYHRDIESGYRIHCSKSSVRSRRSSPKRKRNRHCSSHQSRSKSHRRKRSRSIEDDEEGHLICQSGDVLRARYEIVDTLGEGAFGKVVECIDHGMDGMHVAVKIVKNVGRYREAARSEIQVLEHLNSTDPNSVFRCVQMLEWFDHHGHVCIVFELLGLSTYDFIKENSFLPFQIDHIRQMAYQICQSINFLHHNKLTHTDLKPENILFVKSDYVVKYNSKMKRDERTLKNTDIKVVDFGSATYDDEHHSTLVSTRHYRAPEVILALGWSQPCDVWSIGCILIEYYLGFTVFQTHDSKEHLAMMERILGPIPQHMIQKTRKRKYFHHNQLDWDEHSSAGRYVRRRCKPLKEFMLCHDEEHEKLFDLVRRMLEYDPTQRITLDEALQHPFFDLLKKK
# [12] = target: Dual specificity tyrosine-phosphorylation-regulated kinase 1A (Homo sapiens) (UniProt Q13627); assay: Inhibition of human DYRK1A at 50 nM in presence of ATP by radiometric Hotspot kinase assay relative to control
# [13] = target: Dual specificity tyrosine-phosphorylation-regulated kinase 4 (Homo sapiens) (UniProt Q9NR20); assay: Inhibition of human DYRK4 at 50 nM in presence of ATP by radiometric Hotspot kinase assay relative to control
# Chain of Dual specificity tyrosine-phosphorylation-regulated kinase 4 (Homo sapiens) (Q9NR20 whole entry): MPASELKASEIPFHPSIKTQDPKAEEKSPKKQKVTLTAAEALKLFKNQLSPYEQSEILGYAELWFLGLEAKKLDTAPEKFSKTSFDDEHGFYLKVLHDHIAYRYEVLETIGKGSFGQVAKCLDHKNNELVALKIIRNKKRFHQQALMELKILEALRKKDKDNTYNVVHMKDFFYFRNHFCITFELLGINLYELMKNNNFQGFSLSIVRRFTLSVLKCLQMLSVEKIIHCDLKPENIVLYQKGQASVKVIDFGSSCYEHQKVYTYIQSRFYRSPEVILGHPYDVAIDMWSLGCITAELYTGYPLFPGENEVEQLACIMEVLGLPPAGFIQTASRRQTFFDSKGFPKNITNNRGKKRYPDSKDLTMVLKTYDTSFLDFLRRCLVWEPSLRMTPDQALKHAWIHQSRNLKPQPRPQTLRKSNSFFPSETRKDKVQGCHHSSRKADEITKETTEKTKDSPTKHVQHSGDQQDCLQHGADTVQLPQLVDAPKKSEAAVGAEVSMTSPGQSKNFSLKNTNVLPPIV
# [14] = target: Dual specificity tyrosine-phosphorylation-regulated kinase 1B (Homo sapiens) (UniProt Q9Y463); assay: Inhibition of human DYRK1B at 50 nM in presence of ATP by radiometric Hotspot kinase assay relative to control
# Chain of Dual specificity tyrosine-phosphorylation-regulated kinase 1B (Homo sapiens) (Q9Y463 whole entry, looked up): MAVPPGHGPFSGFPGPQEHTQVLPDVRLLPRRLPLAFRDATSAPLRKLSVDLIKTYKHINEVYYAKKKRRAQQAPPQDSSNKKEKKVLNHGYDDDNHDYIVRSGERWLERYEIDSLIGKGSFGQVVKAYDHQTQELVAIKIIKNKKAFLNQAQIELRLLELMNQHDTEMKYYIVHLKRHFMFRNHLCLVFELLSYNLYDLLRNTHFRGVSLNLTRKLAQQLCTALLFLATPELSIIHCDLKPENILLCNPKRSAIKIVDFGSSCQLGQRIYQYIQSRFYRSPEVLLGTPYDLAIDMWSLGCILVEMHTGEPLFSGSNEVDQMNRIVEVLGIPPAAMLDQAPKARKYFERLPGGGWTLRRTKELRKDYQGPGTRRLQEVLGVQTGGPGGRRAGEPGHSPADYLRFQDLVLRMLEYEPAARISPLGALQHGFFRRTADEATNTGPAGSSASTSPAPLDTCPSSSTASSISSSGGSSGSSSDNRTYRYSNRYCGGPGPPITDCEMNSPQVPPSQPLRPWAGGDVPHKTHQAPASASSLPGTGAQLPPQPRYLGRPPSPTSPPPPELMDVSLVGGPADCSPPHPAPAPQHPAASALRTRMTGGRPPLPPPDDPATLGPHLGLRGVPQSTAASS
# Homo sapiens [15] = species on record: Homo sapiens; assay: Induction of thermal stabilization of His-tagged DNAJB1-PKAcalpha (unknown origin) assessed as change in melting temperature incubated for 15 min by differential scanning fluorometric analysis
# Homo sapiens [16] = species on record: Homo sapiens; assay: Induction of thermal stabilization of His-tagged DNAJB1-PKAcalpha (unknown origin) incubated for 15 min by differential scanning fluorometric analysis
# Chain of Dual specificity protein kinase CLK1 (Homo sapiens) (P49759 whole entry, looked up): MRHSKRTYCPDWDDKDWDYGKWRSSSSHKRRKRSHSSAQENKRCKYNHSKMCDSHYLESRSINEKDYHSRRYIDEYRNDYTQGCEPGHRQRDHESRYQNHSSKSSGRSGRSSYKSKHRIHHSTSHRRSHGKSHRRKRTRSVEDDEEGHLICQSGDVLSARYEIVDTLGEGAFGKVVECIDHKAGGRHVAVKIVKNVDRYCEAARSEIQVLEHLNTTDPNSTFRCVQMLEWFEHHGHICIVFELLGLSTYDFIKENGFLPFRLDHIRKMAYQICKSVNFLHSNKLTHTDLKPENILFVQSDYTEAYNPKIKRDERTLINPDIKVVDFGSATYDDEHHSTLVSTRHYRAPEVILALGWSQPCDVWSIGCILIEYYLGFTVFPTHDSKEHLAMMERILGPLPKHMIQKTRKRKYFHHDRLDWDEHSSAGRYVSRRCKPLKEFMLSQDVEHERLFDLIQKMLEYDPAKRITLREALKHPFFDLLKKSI
SMILES,Activity (OVCAR-4),Activity (SR),IC50 [4],GI50 (LOX IMVI),Activity (NCI/ADR-RES),Activity (MOLT-4),Activity (MDA-MB-468),IC50 [7],also measured
Cn1cncc1C1=CN(c2ncnc3[nH]cnc23)CCS1,–,–,–,–,–,–,–,–,inhibition [1]: Active; inhibition [2]: Active; inhibition [3]: Active; PB (Albumin): 98%
Cn1cncc1C1=CN(c2ccnc3[nH]ccc23)CCS1,inactive,Active,860 nM,> 1000 nM,inactive,Active,Active,–,inhibition [1]: Active; inhibition [5]: 1.7%; inhibition [6]: Active
Cc1c[nH]c2ncnc(N3C=C(c4cncn4C)SCC3)c12,inactive,Active,92 nM,> 1000 nM,inactive,Active,Active,8200 nM,–
Cn1cc(C2=CN(c3ncnc4[nH]ccc34)CCS2)cn1,inactive,Active,440 nM,> 1000 nM,inactive,Active,Active,–,–
C1=C(c2ccnc3[nH]ccc23)SCCN1c1ncnc2[nH]ccc12,inactive,Active,–,> 1000 nM,inactive,Active,Active,–,inhibition [8]: < 50%; inhibition [1]: < 50%; inhibition [2]: < 50%; inhibition [9]: < 50%; inhibition [3]: Active; inhibition [10]: < 50%; inhibition [6]: Active; inhibition [11]: < 50%; inhibition [12]: < 50%; inhibition [13]: < 50%; inhibition [14]: < 50%
Cn1cnc(Br)c1C1=CN(c2ncnc3[nH]cnc23)CCS1,inactive,Active,–,> 1000 nM,inactive,Active,Active,–,ΔTm (Homo sapiens [15]): 3.1 °C; Activity (Homo sapiens [16]): Dose-dependent-effect
Cn1cncc1N1C=C(c2ccnc3[nH]ccc23)SCC1,inactive,Active,25 nM,> 1000 nM,inactive,Active,Active,5560 nM,inhibition [8]: < 50%; inhibition [1]: < 50%; inhibition [2]: < 50%; inhibition [9]: < 50%; inhibition [3]: Active; ΔTm (Homo sapiens [15]): 6 °C; inhibition [5]: 47%; inhibition [10]: < 50%; inhibition [6]: Active; inhibition [11]: < 50%; Activity (Homo sapiens [16]): Dose-dependent-effect; inhibition [12]: < 50%; inhibition [13]: < 50%; inhibition [14]: < 50%
C[C@@]1(N)CCCN(C(=O)C2=CN(c3ccnc4[nH]ccc34)CCS2)C1,–,–,16 nM,–,–,–,–,3600 nM,–
Cc1cc(N2C=C(c3ccnc4[nH]ccc34)SCC2)ncn1,inactive,Active,200 nM,> 1000 nM,inactive,Active,Active,–,–
C1=C(c2ccnc3[nH]ccc23)SCCN1c1ncnc2sccc12,inactive,Active,310 nM,> 1000 nM,inactive,Active,Active,–,–
C[C@@H]1C[C@@H](N)CN(C(=O)C2=CN(c3ncnc4[nH]ccc34)CCS2)C1,inactive,Active,6 nM,> 1000 nM,inactive,Active,Active,2700 nM,–
C[C@H]1CCN(C(=O)C2=CN(c3ncnc4[nH]ccc34)CCS2)C[C@@H]1N,–,–,7 nM,–,–,–,–,2500 nM,–
Cn1cncc1C1=CN(c2ncnc3[nH]ccc23)CCS1,inactive,Active,150 nM,> 1000 nM,inactive,Active,Active,> 10000 nM,–
C1=C(c2ccnc3[nH]ccc23)SCCN1c1ncnc2occc12,inactive,Active,19 nM,> 1000 nM,inactive,Active,Active,–,–
C1=C(c2ccnc3[nH]ccc23)SCCN1c1ccncn1,inactive,Active,6.3 nM,> 1000 nM,inactive,Active,Active,282 nM,ΔTm (Homo sapiens [15]): 7.9 °C; Activity (Homo sapiens [16]): Dose-dependent-effect
C[C@@]1(N)CCCN(C(=O)C2=CN(c3ncnc4[nH]ccc34)CCS2)C1,inactive,Active,–,> 1000 nM,inactive,Active,Active,4400 nM,–
